60 compounds from the METLIN SMRT retention time set (Domingo-Almenara et al. 2019) can be followed below.

A short description of this series: gradient 5% acetonitrile 3 min, to 50% in 2 min, to 85% in 15 min, held 3 min, 100 µL/min. Particulars: column: Zorbax Extend-C18 2.1 x 50 mm; eluents: water / acetonitrile, 0.1% formic acid. The method in brief:
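Mixtures of ~100 pure standards were chromatographed on a Zorbax Extend-C18 column (2.1 × 50 mm, 1.8 μm) at 100 μL/min using water and acetonitrile, each with 0.1% formic acid. Detection used a quadrupole time-of-flight mass spectrometer in positive and negative ionization mode, and data collection spanned 3 months. Retention time was obtained from adduct peaks picked computationally and each checked manually.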
On to `CC1CCN(S(=O)(=O)c2ccc3c(c2)CCCC(=O)N3CC(=O)N2CCc3ccccc3C2)CC1`, for which the RP-LC retention time was 1010 s.

In turn, `CN(CC1CCOC1)C(=O)c1ccccc1Br` (stereo not given) had an RP-LC retention time of 697 s.

`Cc1cc2c(cc1S(=O)(=O)N(C)CC(=O)N1CCN(c3ccccn3)CC1)OCC(=O)N2` gave an RP-LC retention time of 583 s.

As for `Cc1ccccc1NC(=O)Cc1cccn1-c1ccc(Cl)cc1`, the RP-LC retention time stood at 1040 s.

Take `O=S(=O)(c1ccc(F)cc1)N1CCc2nc(-c3ccccc3)ncc2C1`: the RP-LC retention time stood at 1040 s.

For the compound `c1ccc(C2CN3CCSC3=N2)cc1` (stereo not given), the RP-LC retention time was 618 s.

The compound `Cc1nnc(CNC(=O)CCc2c[nH]c3ccccc23)o1` gave an RP-LC retention time of 622 s.

Regarding `O=C(Cn1nc2c3ccccc3ncn2c1=O)Nc1ccc2c(c1)OCO2`, the RP-LC retention time is 665 s.

On to `Cc1ccc(-c2noc(Cn3ncn4nc(-c5cccs5)cc4c3=O)n2)cc1`, for which the RP-LC retention time stood at 1100 s.

On to `CCCn1ccc2oc(C)c(C(=O)NC(C)c3ccc(F)cc3)c2c1=O` (stereo not given), for which the RP-LC retention time stood at 1040 s.

Compound `O=C(c1cccnc1)N1CC(n2cc(COCC3CC3)nn2)C1` gave an RP-LC retention time of 597 s.

The compound `CC(Cc1ccco1)NC(=O)c1cc(S(=O)(=O)N2CCCCC2)ccc1Cl` (stereo not given) showed an RP-LC retention time of 967 s.

In the case of `O=C(NCc1cccnc1-c1ccc(F)cc1)c1cccs1`, the RP-LC retention time was determined as 894 s.

`O=C(Nc1ccc2c(c1)OCCO2)N1CC[C@@H]2COC(=O)N(Cc3ccccc3)[C@@H]2C1` gave an RP-LC retention time of 724 s.

Turning to `COc1ccccc1-c1noc(-c2nnn(Cc3nc(-c4ccccc4OC)oc3C)c2C)n1`, the RP-LC retention time was determined as 1060 s.

In turn, `Cn1cnc(S(=O)(=O)N2[C@H]3CC[C@@H]2c2cnc(-c4ccc(F)cc4)nc2C3)c1` returned an RP-LC retention time of 764 s.

`CCOC(=O)c1c(C)[nH]c(CCC(=O)NC2CCCCC2)c1C` displayed an RP-LC retention time of 823 s.

Regarding `CNC(=O)c1csc(NC(=O)c2cc(Cl)ccc2Cl)n1`, the RP-LC retention time was 685 s.

As for `CCn1cnc(S(=O)(=O)N2CCCC(C(=O)NC3CCCCCC3)C2)c1` (stereo not given), the RP-LC retention time was 740 s.

Compound `O=C(NCc1cccs1)C1CCCN(Cc2nc(-c3cccnc3)no2)C1` (stereo not given) displayed an RP-LC retention time of 571 s.

For `Cc1c(S(=O)(=O)N2CCC(Cc3ccccc3)CC2)c(=O)n(C)c(=O)n1C`, the RP-LC retention time was 870 s.

For the compound `Cc1cc(C(=O)N2CCC(CC(=O)NC3CC3)C2)n(C)n1` (stereo not given), the RP-LC retention time came to 585 s.

`CCC(C)NC(=O)C1CCCN1S(=O)(=O)c1cc2c(cc1C)NC(=O)CO2` (stereo not given): the RP-LC retention time amounted to 710 s.

The compound `CN(C)C(=O)c1ccc2c(c1)N(CC(=O)Nc1ccc(Cl)cc1)C(=O)CS2` registered an RP-LC retention time of 753 s.

In turn, `CCc1cccc(NC(=O)Cn2nc3cc(C)nc(N4CCCC4)n3c2=O)c1` gave an RP-LC retention time of 798 s.

Turning to `CN1C(=O)CCC2(CNC(=O)c3n[nH]c(=O)c4ccccc34)CCC=C12` (stereo not given), the RP-LC retention time was determined as 669 s.

On to `CCn1cc(-c2nc(C)c(C(=O)Nc3cccc(C(=O)OC)c3)s2)c2cccnc21`, for which the RP-LC retention time amounted to 993 s.

Compound `CCc1nc2cc(N3CCCC(C(=O)N4CCC5(CC4)OCCO5)C3)cnc2nc1CC` (stereo not given) displayed an RP-LC retention time of 769 s.

`CCN(CC)CCNC(=O)c1cn(C)nc1S(=O)(=O)N1CCN(c2cc(Cl)ccc2C)CC1` registered an RP-LC retention time of 756 s.

As to `CCN1CCN(CCCNc2ccc(-c3nc(-c4cccc(F)c4)no3)cn2)CC1`, the RP-LC retention time amounted to 634 s.

In the case of `COCCNC(=O)CN1C(=O)C2CCCCN2c2ccc(C(=O)N3CCCC3)cc21` (stereo not given), the RP-LC retention time was 653 s.

For the compound `CN1CCCCCC(O)c2cc(C(=O)NCCC3=CCCCC3)ccc21` (stereo not given), the RP-LC retention time stood at 703 s.

On to `CCOCCCNC(=O)c1ccc(-c2ccc(N3CCCC3)nn2)cc1`, for which the RP-LC retention time is 558 s.

In turn, `O=C(CSc1ncnc2c(-c3ccccc3)c[nH]c12)Nc1ccc2c(c1)OCO2` gave an RP-LC retention time of 824 s.

For `O=C(c1ccco1)N1CCN(C(=O)c2c3c(nc4ccccc24)C(=O)N(C2CCCCC2)C3)CC1`, the RP-LC retention time turned out to be 727 s.

Compound `Cc1noc(C2CN(C(=O)Nc3ccc(C)c(C)c3)CC23CCOCC3)n1` (stereo not given) returned an RP-LC retention time of 768 s.

`CCc1noc([C@@H]2CC(F)(F)CN2C(=O)c2occc2C)n1`: the RP-LC retention time was 840 s.

`Cn1cc(-c2nc(C(=O)NCc3ccc(F)cc3Cl)cs2)c2cccnc21` showed an RP-LC retention time of 1010 s.

Turning to `O=C(COc1ccccc1)N1CCN(c2nc(CN3CCCCC3)cs2)CC1`, the RP-LC retention time is 636 s.

The compound `O=C(O)[C@@H]1CN(Cc2ccccc2)C[C@@H]1C(=O)N1CCc2ccccc21` gave an RP-LC retention time of 641 s.

`CC(C)CC(=O)Nc1ccc(-n2cnc(C(=O)N3CC(C)CC(C)C3)c2)nc1` (stereo not given) gave an RP-LC retention time of 839 s.

`O=c1ccc(S(=O)(=O)N2CCCCCC2)cn1Cc1cccc(F)c1` returned an RP-LC retention time of 944 s.

Compound `O=C(NCC1CC1)c1c(O)c2sccc2n(Cc2ccccc2)c1=O` gave an RP-LC retention time of 766 s.

For the compound `CN(CCNC(=O)c1ccc2c(c1)NC(=O)C1CCCCN21)C1CCCCC1` (stereo not given), the RP-LC retention time worked out at 630 s.

In the case of `Cc1ccnc(N2CCCC(C(=O)NCCSCc3ccco3)C2)n1` (stereo not given), the RP-LC retention time was 709 s.

Compound `COc1ccc(Cn2c(=O)c3sccc3n(Cc3nc(-c4ccc(Cl)c(F)c4)no3)c2=O)cc1` registered an RP-LC retention time of 1190 s.

Regarding `CCOC(=O)c1cccc(NC(=O)C2CCN(S(=O)(=O)c3ccc4[nH]c(=O)ccc4c3)CC2)c1`, the RP-LC retention time turned out to be 768 s.

`O=C(NCc1nc(-c2cccs2)no1)c1ccc(Br)cc1` displayed an RP-LC retention time of 892 s.

Take `CCC(C)NC(=O)COc1nc(C)nc2onc(-c3cccc(F)c3)c12` (stereo not given): the RP-LC retention time worked out at 932 s.

`CN(C)c1ccc(CNC(=O)CCC(=O)N2CCCn3nc(-c4cccn4C)cc32)cc1`: the RP-LC retention time came to 599 s.

For the compound `CCC(=O)N(C1CCOCC1)C1CCN(S(=O)(=O)c2cc(F)cc(F)c2)CC1`, the RP-LC retention time was found to be 856 s.

In the case of `CCn1c(C)c(CN2CCC(C(=O)NCc3ccccc3C)CC2)c2ccccc21`, the RP-LC retention time is 742 s.

Compound `CC1(C(N)=O)CC(c2ccccc2)=NO1` (stereo not given) registered an RP-LC retention time of 828 s.

Compound `CCc1cc(=O)n(CC(=O)Nc2ccc(OC)cc2)c(N2CCOCC2)n1` returned an RP-LC retention time of 699 s.

Compound `COc1ccc(NC(=O)c2[nH]c3cc(C)sc3c2CN(C)C)c(OC)c1` registered an RP-LC retention time of 678 s.

In turn, `COCCNc1c(-c2ccc(F)cc2)nc2sc(C(=O)N3CCN(C)CC3)c(C)n12` had an RP-LC retention time of 569 s.

Compound `c1ccc2c(c1)[nH]c1c3ccccc3sc21` registered an RP-LC retention time of 1160 s.

Turning to `COc1ccc(-c2nc(C3CC(=O)N(c4ccc(C)cc4)C3)no2)c(C)c1` (stereo not given), the RP-LC retention time turned out to be 1090 s.

In the case of `Nc1cc(C2CCN(C(=O)Nc3ccc(Cl)cc3)CC2)no1`, the RP-LC retention time turned out to be 722 s.

The compound `CSc1ccc(-c2nc3ccc(C)cn3c2Nc2ccc(C)cc2)cc1` returned an RP-LC retention time of 819 s.
